Results: US20210395226A1, “SUBSTITUTED ARYL COMPOUND AND PREPARATION METHOD THEREFOR AND USE THEREOF” (SICHUAN KELUN-BIOTECH BIOPHARMACEUTICAL CO., LTD., priority 2018, published 2021)
Like-named read-outs stand apart in the source and are kept apart here.

Legend:
[1] = target: T1, Adenosine A1 receptor (human) membrane (Homo sapiens, UniProt P30542); test: Determination of competitive inhibition constant (Ki) for adenosine A1 receptor, [3H]-DPCPX radioligand; assay type: binding; details: 1.0 nM [3H]-DPCPX
T1 construct: purchased PerkinElmer ES-010-M400UA
T1 sequence (P30542 1-326): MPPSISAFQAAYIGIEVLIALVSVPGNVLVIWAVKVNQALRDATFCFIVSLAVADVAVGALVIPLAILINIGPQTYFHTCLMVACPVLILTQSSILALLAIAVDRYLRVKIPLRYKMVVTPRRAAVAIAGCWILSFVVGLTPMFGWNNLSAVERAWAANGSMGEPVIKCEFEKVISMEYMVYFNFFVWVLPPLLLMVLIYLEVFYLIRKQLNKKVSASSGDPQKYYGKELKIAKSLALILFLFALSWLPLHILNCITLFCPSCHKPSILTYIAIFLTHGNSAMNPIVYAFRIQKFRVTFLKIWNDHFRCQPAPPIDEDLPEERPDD
Experimental: (§1) Test Example 1: Determination of Competitive Inhibition Constant (Ki) for Adenosine A1 and A2a Receptors
[^3H]-DPCPX (PerkinElmer, NET974250UC),
Adenosine A1 receptor (human) membrane (PerkinElmer, ES-010-M400UA),
assay buffer for A1 (25 mM HEPES, 5 mM MgCl2, 1 mM CaCl2, 100 mM NaCl, pH7.4), used to dilute adenosine A1 receptor (human) membrane and [^3H]-DPCPX;
wash buffer for A1 (25 mM HEPES, 5 mM MgCl2, 1 mM CaCl2, 100 mM NaCl, pH7.4);
(§2) Adenosine A1 receptor membrane was diluted to 0.025 μg/μl with assay buffer for A1, and Adenosine A2a receptor membrane was diluted to 0.05 μg/μl with assay buffer for A2a, so as to obtain Adenosine A1 receptor membrane dilution and Adenosine A2a receptor membrane dilution.
(§3) The compound to be tested and CGS-15943 were diluted with DMSO, and 1 W of the compound to be tested, high value control (0.5% DMSO), low value control (1000 nM CGS-15943) were added to a 96-well plate, and 100 W of Adenosine A1 receptor membrane dilution (containing 2.5 μg of membrane) was added to each well of the 96-well plate to obtain A1 detection plate; following the same steps, 100 W of Adenosine A2a receptor membrane dilution (containing 5.0 μg membrane) was added to each well of the 96-well plate to obtain A2a detection plate.
(§4) To the A1 detection plate, 100 μl of radioisotope-labeled ligand [^3H]-DPCPX (diluted with assay buffer for A1, working concentration of which was 1.0 nM) was added; and to the A2a detection plate, 100 μl of radioisotope-labeled ligand [^3H]-CGS-21680 (diluted with assay buffer for A2a, working concentration of which was 6.0 nM) was added. The A1 and A2a detection plates were sealed with tape, and incubated at room temperature for 1 h and 2 h, respectively.
(§5) Unifilter-96 GF/C filter plates were prepared, 50 μl of 0.3% PEI was added to each well of the Unifilter-96 GF/C filter plates, and the resulting filter plates were incubated at room temperature for not less than 0.5 h.
(§6) After the incubation was completed, the reaction solution was transferred from the A1 detection plate and the A2a detection plate to two Unifilter-96 GF/C filter plates, and washed with pre-cooled wash buffer for A1 and wash buffer for A2a, and then the filter plates were dried, sealed at bottom, then 50 W of Microscint 20 fluid scintillation cocktail was added, and then the filter plates were sealed at top, and counted by MicroBeta2 Reader.
(§7) Inhibition rate %=100−(signal value of test well−signal average value of low value control)/(signal average value of high value control−signal average value of low value control)*100.
(§8) EXCEL XLfit was used to fit IC50.
(§9) The calculation formula for competitive inhibition constant (Ki) was: Ki=IC50/(1+concentration of isotope-labeled ligand/Kd), wherein Kd was the dissociation constant of the isotope-labeled ligand.

[2] = target: T2, Adenosine A2a receptor (human) membrane (Homo sapiens, UniProt P29274); test: Determination of competitive inhibition constant (Ki) for adenosine A2a receptor, [3H]-CGS-21680 radioligand; assay type: binding; details: for Ki: human A2a receptor membrane, 6.0 nM [3H]-CGS-21680, read-out: Ki(A2a); for Ki(A1)/Ki(A2a): selectivity ratio A1 over A2a
T2 construct: purchased PerkinElmer RBHA2AM400UA
Experimental: as §1
Adenosine A2a receptor (human) membrane (PerkinElmer, RBHA2AM400UA),
assay buffer for A2a (50 mM Tris-HCl, 10 mM MgCl2, 1 mM EDTA, pH7.4), used to dilute adenosine A2a receptor (human) membrane (human origin) and [^3H]-CGS-21680; and
wash buffer for A2a (50 mM Tris-HCl, 154 mM NaCl, pH7.4).
as §2, §3, §4, §5, §6, §7, §8, §9

[3] = Pharmacokinetics (PK) and distribution in brain tissue in rats; assay type: in vivo, male SD rats
Experimental: Test Example 3: Study on Pharmacokinetics (PK) and Distribution in Brain Tissue in Rats
The compounds of the present application were administered to male SD rats by intravenous (IV) and intragastric (PO) respectively to investigate the pharmacokinetic characteristics. The dosages of IV and PO were 1 mg/kg and 5 mg/kg, respectively. The solvent for IV was a mixture of 5% DMSO, 5% Solutol (polyethylene glycol 15-hydroxystearate) and 90% saline, and the solvent for PO was 0.5% MC (methyl cellulose sodium). Before IV administration (0 h) and at 0.083 h, 0.25 h, 0.5 h, 1 h, 2 h, 4 h, 6 h, 8 h and 24 h time points after administration, blood samples were collected; before PO administration (0 h) and at 0.25 h, 0.5 h, 1 h, 2 h, 4 h, 6 h, 8 h and 24 h time points after administration, blood samples were collected; the blood samples were anticoagulated with EDTA.K2, and centrifuged to obtain plasma samples. For Compound 11, brain tissue samples were taken and homogenized at 0.25 h, 0.5 h, 1 h, 4 h and 8 h; for Compounds 19 and 32, and brain tissue samples were taken and homogenized at 0.25 h, 0.5 h, 1 h and 8 h (three SD rats were selected for the experiment of distribution in brain tissue at each time point), and the resulting brain tissue homogenate samples were stored at −80° C. The plasma samples and brain tissue homogenate samples were subjected to precipitation of protein, and then LC-MS/MS analysis was performed.
Pharmacokinetic parameters were calculated by means of non-compartmental model by using WinNonlin 6.3 software.

T2 sequence (P29274 whole entry): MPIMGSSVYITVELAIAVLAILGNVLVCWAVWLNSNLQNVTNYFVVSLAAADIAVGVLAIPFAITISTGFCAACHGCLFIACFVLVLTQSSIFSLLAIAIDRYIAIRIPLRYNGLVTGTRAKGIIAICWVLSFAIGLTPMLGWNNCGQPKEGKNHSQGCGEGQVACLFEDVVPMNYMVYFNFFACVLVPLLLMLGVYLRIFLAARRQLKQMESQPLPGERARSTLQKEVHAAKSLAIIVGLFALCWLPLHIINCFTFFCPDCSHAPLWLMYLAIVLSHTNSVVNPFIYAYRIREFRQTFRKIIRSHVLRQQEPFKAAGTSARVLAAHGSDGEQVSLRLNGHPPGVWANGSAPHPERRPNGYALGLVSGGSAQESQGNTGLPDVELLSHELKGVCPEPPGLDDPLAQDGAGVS

| Structure (SMILES) | Ki [1] [nM] | Ki [2] [nM] | Ki(A1)/Ki(A2a) [2] | bioavailability ([3]; male, SD, plasma, rat, oral 5 mg/kg compared with intravenous 1 mg/kg) [%] | Cmax ([3]; male, SD, rat plasma, IV, 1 mg/kg) [ng/mL] | AUC(0-t) ([3]; male, SD, rat plasma, IV, 1 mg/kg, read-out: AUClast) [ng·h/mL] | AUC(0-t) ([3]; male, SD, rat plasma, PO, 5 mg/kg, read-out: AUClast (plasma)) [ng·h/mL] | AUClast (brain) ([3]; rat brain tissue, PO, 5 mg/kg) [ng·h/g] | Plasma AUClast/brain AUClast ([3]; rat, PO, 5 mg/kg) |
| --- | --- | --- | --- | --- | --- | --- | --- | --- | --- |
| Cc1ncnc2ccc(-c3cnc(NC(=O)N4CCN(C)CC4)nc3-c3ccc(F)cc3)cc12 [Compound 30, N-(4-(4-fluorophenyl)-5-(4-methylquinazolin-6-yl)pyrimidin-2-yl)-4-methylpiperazine-1-carboxamide] | 1590 | 21.2 | 75.0 |  |  |  |  |  |  |
| COCCN(C)C(=O)Nc1ncc(-c2ccc3ncnc(C)c3c2)c(-c2ccc(F)cc2)n1 [Compound 31, 3-(4-(4-fluorophenyl)-5-(4-methylquinazolin-6-yl)pyrimidin-2-yl)-1-(2-methoxyethyl)-1-methylurea] | 3330 | 27.7 | 120.1 |  |  |  |  |  |  |
| Cc1ncnc2ccc(-c3cc(F)c(NC(=O)N4CCOCC4)nc3-c3ccc(F)cc3)cc12 [Compound 32, N-(3-fluoro-6-(4-fluorophenyl)-5-(4-methylquinazolin-6-yl)pyridin-2-yl) morpholine-4-carboxamide] | 534 | 9.5 | 56.2 | 80.2 | 1480 | 1820 | 7310 | 52.9 | 138/1 |
| Cc1ncnc2ccc(-c3cnc(NC(=O)N4CCO[C@@H](C)C4)nc3-c3ccc(F)cc3)cc12 [Compound 34, (S)-N-(4-(4-fluorophenyl)-5-(4-methylquinazolin-6-yl)pyrimidin-2-yl)-2-methylmorpholine-4-carboxamide] | 538 | 12.6 | 42.7 |  |  |  |  |  |  |
| Cc1cc(-c2cnc(NC(=O)N3CCCCC3)nc2-c2ccc(F)cc2)cc(Cl)n1 [Compound 35, N-(5-(2-chloro-6-methylpyridin-4-yl)-4-(4-fluorophenyl)pyrimidin-2-yl) piperidine-1-carboxamide] | 1870 | 14.7 | 126.9 |  |  |  |  |  |  |
| Cc1cc(-c2cnc(NC(=O)N3CCO[C@@H](C)C3)nc2-c2ccc(F)cc2)cc(Cl)n1 [Compound 36, (S)-N-(5-(2-chloro-6-methylpyridin-4-yl)-4-(4-fluorophenyl)pyrimidin-2-yl)-2-methylmorpholine-4-carboxamide] | 583 | 10.6 | 55.0 |  |  |  |  |  |  |
| Cc1cc(-c2cnc(NC(=O)N3C[C@@H](C)O[C@@H](C)C3)nc2-c2ccc(F)cc2)cc(Cl)n1 [Compound 37, (2R,6S)-N-(5-(2-chloro-6-methylpyridin-4-yl)-4-(4-fluorophenyl)pyrimidin-2-yl)-2,6-dimethylmorpholine-4-carboxamide] | 4050 | 23.3 | 173.7 |  |  |  |  |  |  |
| Cc1cc(-c2cnc(NC(=O)N3CCO[C@H](C)C3)nc2-c2ccc(F)cc2)cc(Cl)n1 [Compound 38, (R)-N-(5-(2-chloro-6-methylpyridin-4-yl)-4-(4-fluorophenyl)pyrimidin-2-yl)-2-methylmorpholine-4-carboxamide] | 1410 | 13.1 | 107.4 |  |  |  |  |  |  |
| Cc1ncnc2ccc(-c3cnc(NC(=O)N4C[C@@H](C)O[C@@H](C)C4)nc3-c3ccc(F)cc3)cc12 [Compound 39, (2R,6S)-N-(4-(4-fluorophenyl)-5-(4-methylquinazolin-6-yl)pyrimidin-2-yl)-2,6-dimethylmorpholine-4-carboxamide] | 814 | 11 | 74.0 |  |  |  |  |  |  |
| Cc1ncnc2ccc(-c3cnc(NC(=O)N4CCO[C@H](C)C4)nc3-c3ccc(F)cc3)cc12 [Compound 40, (R)-N-(4-(4-fluorophenyl)-5-(4-methylquinazolin-6-yl)pyrimidin-2-yl)-2-methylmorpholine-4-carboxamide] | 411 | 5.4 | 76.2 |  |  |  |  |  |  |
| Cc1ncnc2ccc(-c3ccc(NC(=O)N4CCOCC4)nc3-c3ccc(F)cc3)cc12 [Compound 41, N-(6-(4-fluorophenyl)-5-(4-methylquinazolin-6-yl)pyridin-2-yl)morpholine-4-carboxamide] | 2530 | 1.92 | 1319.0 |  |  |  |  |  |  |
| Cc1ncnc2ccc(-c3c(Cl)cc(NC(=O)N4CCOCC4)nc3-c3ccc(F)cc3)cc12 [Compound 42, N-(4-chloro-6-(4-fluorophenyl)-5-(4-methylquinazolin-6-yl)pyridin-2-yl) morpholine-4-carboxamide] | 333 | 2.3 | 144.6 |  |  |  |  |  |  |
| Cc1cc(-c2c(C#N)cc(NC(=O)N3CCOCC3)nc2-c2ccc(F)cc2)cc(Cl)n1 [Compound 45, N-(2′-chloro-4-cyano-2-(4-fluorophenyl)-6′-methyl-[3,4′-bipyridyl]-6-yl) morpholine-4-carboxamide] | 1370 | 11.8 | 115.3 |  |  |  |  |  |  |
| Cc1ccnc2ccc(-c3c(-c4ccc(F)cc4)nc(NC(=O)N4CCOCC4)nc3C3CC3)cc12 [Compound 47, N-(4-cyclopropyl-6-(4-fluorophenyl)-5-(4-methylquinolin-6-yl)pyrimidin-2-yl)morpholine-4-carboxamide] | 217 | 5.13 | 42.4 |  |  |  |  |  |  |
